Target: T1, cathepsin L (Homo sapiens, UniProt P07711)
T1 construct: cathepsin L—isolated from human liver; purchased Calbiochem 219402; host or cells: human liver (tissue isolate)
Assay: Cathepsin L enzyme inhibition in vitro (kinetic fluorescence assay)
Format: biochemical
Conditions: Ki(cathepsin L)/Ki(calpain) ratio
Method: (§1) Testing for blockade of the corresponding enzymic activities was carried out by means of kinetic fluorescence assays (excitation 390 nm, emission 460 nm).
(§2) Apparent Ki values were calculated from the experimentally determined IC50 values by the Cheng-Prussoff relation assuming a reversible competitive enzyme inhibition. The Km values of the substrates used under the assay conditions indicated above were: 90 μM (Z-Phe-Arg-AMC, cathepsin B), 10 μM (Z-Gly-Pro-Arg-AMC, cathepsin K), 2 μM (Z-Phe-Arg-AMC, cathepsin L), and 30 μM (Z-Val-Val-Arg-AMC, cathepsin S).
(§3) The indicated Ki values are averages of the inhibition constants calculated on the basis of 2 to 4 independent dose-effect plots.
(§4) • 1. Calpain I: • 20 nM calpain-I—isolated from human erythrocytes (Calbiochem #208713), 100 μM Suc-Leu-Tyr-AMC (Bachem #1-1355) as substrate in buffer with 62 mM imidazole, 0.3 mM CaCl2, 0.10% CHAPS, 0.05% BSA, 1 mM DTT at pH 7.3 and room temperature. • 2. Cathepsin B: • 0.25 nM cathepsin B—isolated from human liver (Calbiochem #219362), 100 μM Z-Phe-Arg-AMC (Bachem #1-1160) as substrate 50 mM MES, 2 mM EDTA, 0.05% Brij 35, 2.5 mM L-cysteine, pH 6.0, room temperature. • 3. Cathepsin K: • 3 nM cathepsin K—activated from recombinant human procathepsin K from E. coli (Calbiochem #342001), 10 μM Z-Gly-Pro-Arg-AMC (Biomol #P-142) as substrate in 50 mM MES, 2 mM EDTA, 0.05% Brij 35, 2.5 mM L-cysteine, pH 6.0, room temperature. • 4. Cathepsin L: • 1 nM cathepsin L—isolated from human liver (Calbiochem #219402), 2 μM Z-Phe-Arg-AMC (Bachem #1-1160) as substrate in 50 mM MES, 2 mM EDTA, 0.05% Brij 35, 2.5 mM L-cysteine, pH 6.0, room temperature. • 5. Cathepsin S: • 0.5 nM recombinant human cathepsin S from E. coli (Calbiochem #219343), 20 μM Z-Val-Val-Arg-AMC (Bachem #1-1540) as substrate in 50 mM MES, 2 mM EDTA, 0.05% Brij 35, 2.5 mM L-cysteine, pH 6.0, room temperature.

T1 sequence (P07711 114-333): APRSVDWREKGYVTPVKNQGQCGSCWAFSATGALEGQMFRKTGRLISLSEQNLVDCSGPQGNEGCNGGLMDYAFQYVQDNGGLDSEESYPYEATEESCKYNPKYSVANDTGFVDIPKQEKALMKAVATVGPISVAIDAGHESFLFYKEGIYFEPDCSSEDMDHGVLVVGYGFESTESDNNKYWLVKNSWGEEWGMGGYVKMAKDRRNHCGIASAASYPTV

Structure (SMILES) | Sel cat. L
CCCCC(NC(=O)c1cccnc1-n1cnc(-c2ccccc2)c1)C(=O)C(N)=O (stereo not drawn) [Example 2, N-{1-[Amino(oxo)acetyl]pentyl}-2-(4-phenyl-1H-imidazol-1-yl)nicotinamide] | ++ (++ means a Ki(cathepsin L)/Ki(calpain) ratio of ≧50)
NC(=O)C(=O)C(Cc1ccccc1)NC(=O)c1cccnc1-n1cnc(-c2ccc(Cl)cc2)c1 (stereo not drawn) [Example 9, N-(3-Amino-1-benzyl-2,3-dioxopropyl)-2-[4-(4-chlorophenyl)-1H-imidazol-1-yl]nicotinamide] | + (+ means 30≦Ki(cathepsin L)/Ki(calpain)<50)
COc1ccc(-c2cn(-c3ncccc3C(=O)NC(Cc3ccccc3)C(=O)C(N)=O)cn2)cc1 (stereo not drawn) [Example 13, N-(3-Amino-1-benzyl-2,3-dioxopropyl)-2-[4-(4-methoxyphenyl)-1H-imidazol-1-yl]nicotinamide] | ++ (++ means a Ki(cathepsin L)/Ki(calpain) ratio of ≧50)
CCCCC(NC(=O)c1cc(Cl)cnc1-n1cnc(-c2ccccc2)c1)C(=O)C(N)=O.Cl (stereo not drawn) [Example 24, N-{1-[Amino(oxo)acetyl]pentyl}-5-chloro-2-(4-phenyl-1H-imidazol-1-yl)nicotinamide hydrochloride] | + (+ means 30≦Ki(cathepsin L)/Ki(calpain)<50)
Cc1cn(-c2ncccc2C(=O)NC(Cc2ccccc2)C(=O)C(N)=O)nc1-c1ccccc1 (stereo not drawn) [Example 86, N-[3-Amino-2,3-dioxo-1-(phenylmethyl)propyl]-2-(4-methyl-3-phenyl-1H-pyrazol-1-yl)pyridine-3-carboxamide] | ++ (++ means a Ki(cathepsin L)/Ki(calpain) ratio of ≧50)
COCc1cn(-c2ncccc2C(=O)NC(Cc2ccccc2)C(=O)C(N)=O)nc1-c1ccc(F)cc1 (stereo not drawn) [Example 170, N-[3-Amino-2,3-dioxo-1-(phenylmethyl)propyl]-2-{3-(4-fluorophenyl)-4-[(methyloxy)methyl]-1H-pyrazol-1-yl}pyridine-3-carboxamide] | + (+ means 30≦Ki(cathepsin L)/Ki(calpain)<50)

Target: T2, cathepsin S (Homo sapiens, UniProt P25774)
T2 construct: purchased Calbiochem 219343; host or cells: E. coli
T2 sequence (P25774 115-331): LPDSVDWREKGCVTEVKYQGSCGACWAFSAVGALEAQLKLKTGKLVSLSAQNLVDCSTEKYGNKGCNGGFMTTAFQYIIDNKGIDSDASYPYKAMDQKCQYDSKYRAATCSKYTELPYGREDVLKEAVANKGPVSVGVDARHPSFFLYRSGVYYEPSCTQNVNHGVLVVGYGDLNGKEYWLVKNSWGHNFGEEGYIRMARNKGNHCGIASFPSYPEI
Assay: Cathepsin S enzyme inhibition in vitro (kinetic fluorescence assay)
Format: biochemical
Conditions: Ki(cathepsin S)/Ki(calpain) ratio
Method: as §1, §2, §3, §4

Structure (SMILES) | Sel cat. S
NC(=O)C(=O)C(Cc1ccccc1)NC(=O)c1cccnc1-n1cnc(-c2ccc(Cl)cc2)c1 (stereo not drawn) [Example 9, N-(3-Amino-1-benzyl-2,3-dioxopropyl)-2-[4-(4-chlorophenyl)-1H-imidazol-1-yl]nicotinamide] | ++ (++ means a Ki(cathepsin S)/Ki(calpain) ratio of ≧100)
COc1ccc(-c2cn(-c3ncccc3C(=O)NC(Cc3ccccc3)C(=O)C(N)=O)cn2)cc1 (stereo not drawn) [Example 13, N-(3-Amino-1-benzyl-2,3-dioxopropyl)-2-[4-(4-methoxyphenyl)-1H-imidazol-1-yl]nicotinamide] | + (+ means 50≦Ki(cathepsin S)/Ki(calpain)<100)
NC(=O)C(=O)C(Cc1ccccc1)NC(=O)c1cccnc1-n1cc(CCN2CCOCC2)c(-c2ccc(F)cc2)n1 (stereo not drawn) [Example 165, N-[3-Amino-2,3-dioxo-1-(phenylmethyl)propyl]-2-[3-(4-fluorophenyl)-4-(2-morpholin-4-ylethyl)-1H-pyrazol-1-yl]pyridine-3-carboxamide] | ++ (++ means a Ki(cathepsin S)/Ki(calpain) ratio of ≧100)
CN(C)Cc1cn(-c2ncccc2C(=O)NC(Cc2ccccc2)C(=O)C(N)=O)nc1-c1cccc(C(F)(F)F)c1 (stereo not drawn) [Example 176, N-[3-Amino-2,3-dioxo-1-(phenylmethyl)propyl]-2-{4-[(dimethylamino)methyl]-3-[3-(trifluoromethyl)phenyl]-1H-pyrazol-1-yl}pyridine-3-carboxamide] | ++ (++ means a Ki(cathepsin S)/Ki(calpain) ratio of ≧100)
NC(=O)C(=O)C(Cc1ccccc1)NC(=O)c1cccnc1-n1cc(CN2CCOCC2)c(-c2cccc(C(F)(F)F)c2)n1 (stereo not drawn) [Example 177, N-[3-Amino-2,3-dioxo-1-(phenylmethyl)propyl]-2-{4-(morpholin-4-ylmethyl)-3-[3-(trifluoromethyl)phenyl]-1H-pyrazol-1-yl}pyridine-3-carboxamide] | ++ (++ means a Ki(cathepsin S)/Ki(calpain) ratio of ≧100)
NC(=O)C(=O)C(Cc1ccccc1)NC(=O)c1cccnc1-n1cc(CN2CCCC2)c(-c2cccc(C(F)(F)F)c2)n1 (stereo not drawn) [Example 178, N-[3-Amino-2,3-dioxo-1-(phenylmethyl)propyl]-2-{4-(pyrrolidin-1-ylmethyl)-3-[3-(trifluoronnethyl)phenyl]-1H-pyrazol-1-yl}pyridine-3-carboxamide] | ++ (++ means a Ki(cathepsin S)/Ki(calpain) ratio of ≧100)

Reference: US9139557B2, “Carboxamide compounds and their use as calpain inhibitors” (Abbott GmbH & Co. KG, priority 2006, dated 2015)
